# Like-named read-outs stand apart in the source and are kept apart here.
# Assays:
# rOBP-1F = conditions: cited from earlier work
# [1] = molecular target: T1, mouse MUPII (mMUPII), Genbank AJ309921, Uniprot P11589, SEQ ID NO: 5, recombinant (Mus musculus, UniProt P11589); test: Competitive displacement of 1-AMA, mouse MUPII; format: binding; conditions: for IC50: displacement of 1-AMA, 2 uM protein, 10 uM 1-AMA
# T1 construct: no tag mentioned
# T1 sequence (P11589 19-180): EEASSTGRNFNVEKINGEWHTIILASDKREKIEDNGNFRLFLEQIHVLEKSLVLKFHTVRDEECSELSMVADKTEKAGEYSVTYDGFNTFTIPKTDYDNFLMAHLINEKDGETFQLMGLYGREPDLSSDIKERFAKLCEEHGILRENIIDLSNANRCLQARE
# Procedure: (§1) Competitive binding assays were done with 2 uM protein pre equilibrated with five fold 1-AMA concentration (10 uM). Fluorescence decay of the protein/1-AMA complex is expressed as a ratio of initial and final fluorescence against the total competitor concentration: (I−Imin)/(Io−Imin) where Io=fluorescence intensity of the protein/1-AMA complex, Imin=fluorescence intensity at saturation, and I=fluorescence intensity at a given competitor concentration.
# (§2) Fluorescence ligand binding experiments were performed on a Photon Technology International (London, Canada) Quanta Master Model QM2001 fluorometer at room temperature (19-20° C.), using 1 cm light path quartz cuvettes (Hellma). Slit width of 2 nm was used for excitation and emission for assaying a proteins except ratOBP1F, for which excitation and emission slit width of 6 nm was used.
# (§3) The interaction of odorants with AMA complex was examined by monitoring the decrease in fluorescence intensity of protein/1-AMA complex upon the addition of competitor compounds.
# (§4) In competitive binding assays, 1-AMA (10 μM) was equilibrated with protein (2 μM) at pH 7.2 50 mM sodium phosphate buffer and pH 3.0 50 mM citrate phosphate buffer, and titrated with increasing concentrations of odorants (0-100 μM) solubilized in 10% v/v methanol.
# (§5) The affinity of OBPs for odorants was estimated by plotting the decrease of intensity of 1-AMA fluorescence at the emission maximum, (22). Odorant concentrations causing fluorescence decay to half-maximal intensity (IC50 values) were determined from the plot of (I−Imin)/(I0−Imin) against the competitor concentration; I0 is the maximum of fluorescence intensity of the protein/1-AMA complex; I is the fluorescence intensity after addition of an aliquot of competitor, and Imin the fluorescence intensity at saturating concentration of the competitor.
# pOBP (adult porcine OBP) = conditions: cited from earlier work
# rat OBP = conditions: Nespoulous et al 2004; read-out: apparent Kd; cited from earlier work
# piglet OBP = molecular target: T2, piglet OBP (Sus scrofa, UniProt P81245); test: Competitive fluorescent binding assay: displacement of 1-AMA from piglet OBP by odorants IPMP and IBMP; design: species or system porcine; conditions: for Kd: calculated from IC50, read-out: Kd for piglet OBP
# T2 construct: made in house; host or cells: Pichia pastoris GS115 (pPIC9, alpha-mating factor secretion signal)
# T2 sequence (P81245 with tags, fused parts or gaps): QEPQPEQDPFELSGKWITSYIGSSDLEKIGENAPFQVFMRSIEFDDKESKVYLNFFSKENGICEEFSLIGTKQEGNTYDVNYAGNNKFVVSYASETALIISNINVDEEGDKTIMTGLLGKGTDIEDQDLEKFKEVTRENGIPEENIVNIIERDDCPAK
# Procedure: as §3, §4, §5
# [2] = molecular target: mMUPII (mouse major urinary protein isoform II); conditions: cited from earlier work
# [3] = molecular target: T3, piglet OBP (pIOBP), Genbank AF436848, Uniprot Q8WMH1-1, SEQ ID NO: 3 (codon optimized) / SEQ ID NO: 4 (non-optimized), recombinant (Sus scrofa, UniProt P81245); test: Competitive displacement of 1-AMA, piglet OBP; format: binding, pig (piglet/prepubertal)
# T3 construct: S. cerevisiae alpha-mating factor secretion signal (pPIC9) (N); made in house; host or cells: Pichia pastoris GS115 (vector pPIC9)
# T3 sequence (P81245 with tags, fused parts or gaps): T2 sequence (P81245 with tags, fused parts or gaps)
# Procedure: as §1, §2, §3, §4, §5
# [4] = molecular target: T4, rat OBP1F (rat OBP variant 1F), recombinant (Rattus norvegicus, UniProt P08937); test: Competitive displacement of 1-AMA, rat OBP-1F; format: binding; conditions: pH 7.2
# T4 construct: made in house; host or cells: Pichia pastoris (vector pPIC9; recombinant strain provided by J.-C; Pernollet, INRA)
# T4 sequence (P08937 16-172): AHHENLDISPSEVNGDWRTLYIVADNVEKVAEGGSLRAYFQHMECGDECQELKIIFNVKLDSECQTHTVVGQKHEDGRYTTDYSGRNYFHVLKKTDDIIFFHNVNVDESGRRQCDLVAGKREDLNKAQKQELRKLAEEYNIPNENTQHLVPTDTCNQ
# Procedure: as §1, §2, §3, §4, §5
# [5] = tested on: pOBP, adult porcine OBP isoform; conditions: isothermal calorimetry, Burova et al., 1999, cited from earlier work
# [6] = molecular target: T3, piglet OBP (pIOBP), Genbank AF436848, Uniprot Q8WMH1-1, SEQ ID NO: 3 (codon optimized) / SEQ ID NO: 4 (non-optimized), recombinant; test: 1-AMA fluorescence binding assay, piglet OBP; design: species or system pig (piglet/prepubertal)
# Source text: (§6) The excitation wavelength of 290 nm was used and fluorescence emission intensities were monitored at 504 nm, 483 nm and 486 nm for rat OBP1F, piglet OBP and mouse MUPII respectively.
# (§7) cDNA sequence encoding mature piglet OBP (Genbank AF436848) and the mouse MUPII (Genbank AJ309921) were designed for heterologous expression in the methylotrophic yeast P. pastoris as follows: at the 5′ end of coding sequences, native signal peptide sequences were removed and replaced with XhoI (CTC GAG ([SEQ ID NO: 1]) and prepro sequence of the S. cerevisiae α-mating factor (AAA AGA [SEQ ID NO:2]). A stop codon and an EcoRI restriction site were added at the 3′ terminus. The sequences were then optimized for G+C content and preferred codon usage in P. pastoris. Modified coding sequences were synthesized and cloned in frame with the α-mating factor secretion signal into the pPIC9 expression vector between the XhoI and EcoRI sites (GenScript Corp., Piscataway, N.J.). Further information about the protein sequences is provided below:
# Uniprot ID Q8WMH1-1, Genbank AF436848. *chain comprises 158 residues *differs from adult isoform/variant by an additional lysine residue at the C terminal end. Tissue source for cloning and binding: vomeronasal organ, but the isomer is also found in both vomeronasal and nasal mucosa.
# as §2
# (§8) Binding curves with 1-AMA were obtained by titrating protein (2 μM) in 50 mM sodium phosphate, pH 7.2 with ligand (0-50 uM, prepared gravimetrically as a 1 mM stock solution in 10% v/v methanol). To examine dependence of binding on pH, fluorescence spectra was measured in 50 mM citrate phosphate solutions at pH 3.0, 4.0 and 5.0. Fluorescence of 1-AMA was excited at 290 nm and emission was scanned from 450 to 550 nm.
# (§9) Dissociation constants were calculated from a plot of fluorescence intensity against total ligand concentration fitted with non linear regression using Prism 3.02 (GraphPad Software Inc., La Jolla, Calif.).
# [7] = molecular target: T1, mouse MUPII (mMUPII), Genbank AJ309921, Uniprot P11589, SEQ ID NO: 5, recombinant; test: 1-AMA fluorescence binding assay, mouse MUPII
# Source text: as §6, §7
# 3. mouse MUPII (MUPIIa Genbank AJ309921, MUP BL1 gene, Uniprot ID P11589)
# as §2, §8, §9
# rat OBP-1F = conditions: 1-AMA; Briand et al. 2000 (21); cited from earlier work
# [8] = molecular target: T4, rat OBP1F (rat OBP variant 1F), recombinant; test: 1-AMA fluorescence binding assay, rat OBP-1F
# Procedure: as §6, §2, §8, §9
# [9] = molecular target: adult porcine OBP isoform; conditions: 1-AMA; Paolini et al. 1999 (26), Ramoni et al. 2007 (27); cited from earlier work
smiles,measurement,setting,value
"COc1nccnc1CC(C)C [IBMP, 2-isobutyl-3-methoxypyrazine]",Kd,rOBP-1F,69 nM
same,Kd,"[1]; calculated from IC50, pH 3.0, read-out: Kd",1080 nM
same,Kd,"[1]; calculated from IC50, pH 7.2, read-out: Kd",480 nM
same,IC50,[1]; pH 3.0,3.41 µM
same,IC50,[1]; pH 7.2,8.07 µM
same,displacement of fluorescence,[1]; pH 3.0,complete displacement
same,Kd,"[1]; pH 3.0, read-out: apparent Kd",1000 nM
same,displacement of 1-AMA fluorescence,[1]; pH 7.2,complete displacement
same,Kd,"[1]; pH 7.2, read-out: apparent Kd",500 nM
same,Kd,pOBP (adult porcine OBP),500 to 900 nM
same,Kd,rat OBP,69 nM
same,IC50,piglet OBP; pH 3.0,3.65 µM
same,"affinity for pIOBP, more strongly than IPMP",piglet OBP; pH 3.0,1.6 fold
same,Kd,piglet OBP; pH 3.0,1470 nM
same,IC50,piglet OBP; pH 7.2,6.86 µM
same,"affinity for pIOBP, more strongly than IPMP",piglet OBP; pH 7.2,about 5 fold
same,Kd,piglet OBP; pH 7.2,940 nM
same,Kd,[2],940 nM
same,Kd,[3],1000 nM
same,displacement of fluorescence,[3]; pH 3.0,complete displacement
same,displacement of 1-AMA fluorescence,[3]; pH 7.2,complete displacement
same,Kd,[4]; calculated from IC50,43 nM
same,IC50,"[4]; displacement of 1-AMA, 2 uM protein, 10 uM 1-AMA",250 nM
same,binding to rOBP-1F more strongly than to mMUPII,[4],~20 fold
same,binding to rOBP-1F more strongly than to pIOBP,[4],about 10 fold
same,displacement of 1-AMA fluorescence,[4],complete displacement
same,molar binding stoichiometry n,[5]; pH 3.5,0.417
same,molar binding stoichiometry n,[5]; pH 4.1,1.080
same,affinity to IBMP,"[5]; pH 6.6, pH 4.1 and pH 3.5",remained relatively unchanged
same,molar binding stoichiometry n,[5]; pH 6.6,1.220
"Nc1cccc2cc3ccccc3cc12 [1-AMA, 1-aminoanthracene]",Kd,[6]; pH 3.0,4300 nM
same,decrease in binding affinity compared with pH 7.2,[6]; pH 3.0,3.4 fold
same,maximal binding capacity compared with pH 7.2,[6]; pH 3.0,approximately halved
same,Kd,[6]; pH 4.0,2660 nM
same,decrease in binding affinity compared with pH 7.2,[6]; pH 4.0,2 fold
same,Kd,[6]; pH 5.0,1450 nM
same,Kd,[6]; pH 7.2,1260 nM
same,Kd,[7]; pH 3.0,3480 nM
same,Kd,[7]; pH 4.0,1970 nM
same,Kd,[7]; pH 5.0,1850 nM
same,Kd,[7]; pH 7.2,490 nM
same,binding capacity compared with pH 7.2,[7]; pH 3.0,less than halved
same,decrease in binding affinity compared with pH 7.2,[7]; pH 3.0,7 fold
same,decrease in binding affinity compared with pH 7.2,[7]; pH 4.0,about 4 fold
same,decrease in binding affinity compared with pH 7.2,[7]; pH 5.0,about 4 fold
same,Kd,rat OBP-1F,600 nM
same,saturable binding,[8]; pH 3.0,saturable binding curve was not detected
same,Kd,[8]; pH 5.0,1700 nM
same,Kd,[8]; pH 7.2,1640 nM
same,Kd,[9],1200 to 1300 nM

# From patent US8859026B2, “Method for reducing methoxypyrazines in grapes and grape products” (Brock University, priority 2009, dated 2014)
